{"source": "patent US20180332852A1", "about": "“Increased Almond Yields with Brassinosteroid Application” (Repar Corporation, priority 2017, published 2018)", "key": {"non Pareil almond tree": {"test_system": "non Pareil almond tree", "test": "Experiment 2: effects of HBR on nut size and fruit set in almond trees", "type": "in vivo, Prunus dulcis", "conditions": "1 ppm HBR sprayed two weeks after full bloom; final fruit set at harvest", "description": "The effects of HBR on nut size and fruit set were studied in a population of 20 year old almond trees in Paine, Region 6 of Chile. The experimental design used a randomized block pattern with 10 replications of each experimental condition. Each experimental unit was a shoot of a non […] almond tree which was pollinated by bees in Solano and Carmel cultivars. Sufficient bee colonies were used for pollination of the orchard, including trees not receiving an experimental treatment. Flowers at full bloom were tallied and two weeks later the test branches were sprayed with either a control containing just water, a solution containing HBR at a rate of 1 ppm, a 10 ppm solution of HBR, or a solution of 10 ppm HBR and 10 ppm CPPU. Final fruit set on each test branch was taken at harvest. The percentage of fruit set was calculated by dividing the number of fruit per branch by the number of flowers counted before treatment and multiplying the result by 100."}, "[1]": {"conditions": "diluted solution; pH should be no greater than 7.0, optimally between 4.0 and 5.0; cited from earlier work"}, "[2]": {"test_system": "Branches of Carmel cultivars (almond)", "test": "Experiment 3: pollen germination, pollen tube length and fruit set after treatment during flowering", "type": "in vivo, Prunus dulcis", "conditions": "percent of flowers containing germinated pollen, versus control", "experimental": "Branches of Carmel cultivars were selected from a mature almond orchard further comprising Solando and Non […] cultivars. During flowering, the selected branches received either a brassinosteroid treatment (BL, EBL, or HBR) (FIGS. 1, 2, and 3) or a gibberellic acid (FIG. 4) treatment. Four hours after treatment the percent of flowers which contained germinated pollen was determined. Twenty-four hours after treatment the length of each pollen tube was measured. Finally, fruit set was tabulated 50 days after fertilization. Results across the brassinosteroids were similar. […] Fruit set at 50 days after flowering was greater in the BR group than either GA3 or control."}}}
{"smiles": "CC[C@@H](C(C)C)C(O)C(O)[C@@H](C)[C@H]1CC[C@H]2[C@@H]3COC(=O)[C@H]4C[C@H](O)[C@H](O)C[C@]4(C)[C@H]3CC[C@]12C", "note": "(stereo in doubt) [HBR, homobrassinolide]", "values": [{"measurement": "increase of fruit set over control", "setting": "non Pareil almond tree", "result": 21.1, "unit": "%"}, {"measurement": "stability at alkaline pH levels", "setting": "[1]", "result": "not stable"}, {"measurement": "pollen germination after four hours", "setting": "[2]", "result": "most effective treatment"}]}
